Holding throughout (format): cell-based, human
One assay deals with BPH-1. The experiment in a line: MTS assay, anti-growth effect on cell line. The procedure:
(§1) In this study, six different prostate cell lines (PNT1A, PNT2-C2, BPH-1, PC-3, LNCaP, P4E6) were used (Table 1). These cell lines encompass the spectrum of cellular differentiation status (basal, intermediate and luminal phenotypes), as well as the spectrum of normal, early cancer and late cancer. BPH-1 is derived from benign prostate hyperplasia (BPH), while PNT2-C2 and PNT1A are derived from normal prostate. PC-3, LNCaP and P4E6 are cancer cell lines. LNCaP, PNT2-C2, PNT1A were grown in RPMI medium with 10% FCS (foetal calf serum); PC-3 was grown in Ham’s F-12 medium with 7% FCS; BPH-1 was grown in RPMI medium with 5% FCS; P4E6 was grown in KSFM (Keratinocyte serum free medium) with 2% FCS. No antibiotics were used in any media. The cells were incubated at 37°C in a humidified atmosphere containing 5% CO2.
(§2) This assay was performed for the initial screening of the effect of the Pd complex on the cell lines and the whole cell population of primary cultures. The CellTiter 96® Aqueous One Solution Cell Proliferation Assay kit (G3580, Promega, Madison, WI, USA) was used and the manufacturer’s instructions were followed. Briefly, after treating cells that were seeded at a density of 5,000 cells per well in a 96-well plate in triplicate for a desired period (24 h, 48 h, 72 h), 20 µL of reagent was added to each well. Following 2.5 h incubation at 37°C, the absorbance was read at 485 nm using a plate reader (PolarStar Optima, BMG Labtech, UK). Percent viability was calculated using the formula (% Viability = [(Sample Absorbance/Control Absorbance)]×100.
(§3) MTS and ATP assays were performed in triplicate and data presented as the mean +/− standard deviation. IC50 values (Table 3 and Table 4) were calculated from graphs of transformed data following application of the nonlinear regression (curve fit) that represents the log(inhibitor) ‘v’ normalized response (GraphPad Prism software) (Supplementary Figures S1 and S2). For significance calculations, the Wilcoxon rank sum test was used (Sigmaplot). Flow cytometry analysis was carried out in triplicate and results are presented as an average with error bars indicating the standard error.
On the technique in general: Tetrazolium dyes change colour on reduction, which living cells bring about.

A further assay has as its system LNCaP. The experiment in a line: MTS assay, anti-growth effect on cell line. As to the method:
as §1, §2, §3

In the next assay the test system is P4E6. The experiment in a line: MTS assay, anti-growth effect on cell line. As to the method: as §1, §2, §3
Another assay relates to PC-3. The experiment in a line: MTS assay, anti-growth effect on cell line. The procedure:
as §1, §2, §3

The next assay deals with PNT1A. The assay can be described thus: MTS assay, anti-growth effect on cell line. As to the method:
as §1, §2, §3

A further assay deals with PNT2-C2. The experiment in a line: MTS assay, anti-growth effect on cell line. The procedure: as §1, §2, §3
The next assay relates to γH2AX nuclear foci. The assay can be described thus: γH2AX immunofluorescence, DNA damage in primary cultures. Conditions: 48 h. As to the method: γH2AX staining: Cells were seeded onto 8-well collagen I-coated chamber slides. […] After blocking of non-specific binding with 2% BSA in PBS with 1% goat serum for 1 hour at RT, primary antibody (anti-phospho-histone H2A.X (Ser139), clone JBW301, Millipore, Cat no. 05–636) at 1∶1000 dilution was added in 3% BSA in PBS at 4°C overnight followed by three washes in 0.5% BSA in PBS with 0.175% Tween 20. Following incubation with secondary antibody (Goat anti-mouse Alexa Fluor 568, Invitrogen, Cat no. A-11004) at 1∶1000 dilution for 45 min in 3% BSA in PBS and three more washes in the same washing buffer, the slides were mounted using Vectashield with DAPI (Vector Laboratories, Cat no. H-1200). LC3-B staining: Cells were treated as above then fixed with 4% paraformaldehyde, followed by an incubation in 0.3% Triton X-100. After blocking with 10% normal goat serum, cells were incubated in anti-LC3B 1∶200 (Ab51520, abcam) diluted in 0.1% Triton X-100 in PBS. […]
Since the mechanism of action of the Pd complex has not been fully characterized, the DNA-damaging effect was assessed. […] Nuclei with evidence of γH2AX nuclear foci, indicative of DNA damage, were counted on 10 randomly chosen fields at the highest (63x) magnification and the mean number of positively-stained nuclei was calculated. At least 100 cells per well were counted.

The next assay has as its system LC3-II. The assay can be described thus: Western blotting and immunofluorescence for autophagy, primary cells. The following applies: all primary cells. As to the method:
γH2AX staining: Cells were seeded onto 8-well collagen I-coated chamber slides. […] After blocking of non-specific binding with 2% BSA in PBS with 1% goat serum for 1 hour at RT, primary antibody (anti-phospho-histone H2A.X (Ser139), clone JBW301, Millipore, Cat no. 05–636) at 1∶1000 dilution was added in 3% BSA in PBS at 4°C overnight followed by three washes in 0.5% BSA in PBS with 0.175% Tween 20. Following incubation with secondary antibody (Goat anti-mouse Alexa Fluor 568, Invitrogen, Cat no. A-11004) at 1∶1000 dilution for 45 min in 3% BSA in PBS and three more washes in the same washing buffer, the slides were mounted using Vectashield with DAPI (Vector Laboratories, Cat no. H-1200). LC3-B staining: Cells were treated as above then fixed with 4% paraformaldehyde, followed by an incubation in 0.3% Triton X-100. After blocking with 10% normal goat serum, cells were incubated in anti-LC3B 1∶200 (Ab51520, abcam) diluted in 0.1% Triton X-100 in PBS. Secondary antibody was Alexa Fluor 568 goat anti-rabbit IgG 1∶1000 (Invitrogen A11011).
On the technique in general: In western blotting, separated proteins are transferred to a membrane and probed.

For orientation: IC50 means the concentration needed to halve the response being measured. On to [PdCl(terpy)](sac)⋅2 H2O [Pd complex], for which the IC50 was found to be 17.6 µM with BPH-1 (BPH-1, 24 h); 1.88 µM in the assay with BPH-1 (BPH-1, 48 h); 0.14 µM in the assay with BPH-1 (BPH-1, 72 h); 106 µM in the assay on LNCaP (24 h); 11.9 µM in the assay on LNCaP (48 h); 3.43 µM with LNCaP (72 h). The IC50 in the assay with P4E6 (P4E6, 24 h) turned out to be 21.8 µM; with P4E6 (P4E6, 48 h) it was 9.66 µM; in the assay on P4E6 (P4E6, 72 h), 4.37 µM; with PC-3 (PC-3, 24 h), 98.9 µM; with PC-3 (PC-3, 48 h), 49.1 µM; with PC-3 (PC-3, 72 h), 26.8 µM. Moreover, the IC50 worked out at 28 µM in the assay with PNT1A (24 h); 1.26 µM in the assay with PNT1A (48 h); 0.106 µM in the assay on PNT1A (72 h); 1.73 µM with PNT2-C2 (PNT2-C2, 24 h); 17.2 µM in the assay with PNT2-C2 (PNT2-C2, 48 h); 0.903 µM with PNT2-C2 (PNT2-C2, 72 h). The “level of DNA damage (γH2AX nuclear foci)” value with γH2AX nuclear foci (3.12 µM) is reported as “did not induce a significant level of DNA damage”; in the assay on γH2AX nuclear foci (etoposide and Pd complex at the same dose, primary cultures from prostate carcinoma) it was “same level of DNA damage”. Moreover, the “LC3-II (autophagy)” value with LC3-II was “clear increase in LC3-II”.

For the origin of these results see article PMC3651166, “Differential Cytotoxic Activity of a Novel Palladium-Based Compound on Prostate Cell Lines, Primary Prostate Epithelial Cells and Prostate Stem Cells” (PLoS ONE, 2013).
